Results reported in article PMC3098219, “Protective Efficacy of Serially Up-Ranked Subdominant CD8^+ T Cell Epitopes against Virus Challenges” (PLoS Pathogens, 2011).

Assays:
[1] = tested on: CD8^+ splenocytes of DNA-immunized mice; test: ICS T cell avidity (peptide titration, CD107a/b and IFN-γ); assay type: cell-based, BALB/c mice; conditions: for peak IFN-γ^+CD107a/b^+CD8^+ cell frequencies at 10 µM peptide: Figure 3B, individual determinants when dominant: H in group HIVA, P in HIVAdH, G1 in dHmP, NPP in dHmPG1, 3x 100 µg DNA, 5 h
Protocol: (§1) T2 cell lines were incubated with decreasing peptide concentrations ranging from 100 µM to 0.1 µM indicated above the H peptide histogram and the cell surface peptide-loaded MHC complexes were detected by fluorochrome-conjugated mAb (DB Biosciences) and quantified using FACS flow cytometer. B) and C) Groups of 3 BALB/c mice were given 3x immunizations using 100 µg of DNA expressing the index or mutated forms of HIVA at 3 wk intervals and their T cell responses were analyzed 4 wk later. B) Splenocytes were assessed in an ICS assay using peptides indicated above the graphs at concentrations ranging from 10 to 10^−8 µM for 5 h. Cells were gated on IFN-γ-producing CD8^+ T cell populations positive (top) or negative (bottom) for CD107a/b. Note the different y-axis scales on the top and bottom graphs. C) The response kinetics of CD8^+ T cells re-stimulated with 0.1 µM peptides was assessed in an ICS assay in 1-h intervals for a period of 4 h. Data shown are as mean±SD of [CD8^+CD107a/b^+IFN-γ^+ cells at each time point (%)] ÷ [CD8^+CD107a/b^+IFN-γ^+ at 4 h (%)]. One out of two independent experiments is shown.
We also measured avidities of T cell responses recovered through the sequential HIVA epitope up-ranking. First, responsiveness of immune splenocytes following 3 plasmid DNA deliveries was measured in an ICS assay upon re-stimulation with peptide concentrations ranging from 10^−8 to 10 µM for 5 h (Figure 3A).

[2] = tested on: H-2D^d and H-2L^d molecules; conditions: ref [31], [33]; cited from earlier work
Source text: (§2) Our research interests lie in development of the T cell component of HIV-1 vaccines stimulating protective CD8^+ T cell responses. The first-generation T cell immunogen, designated HIVA (Figure 1A), has served as an extremely useful tool for iterative improving of CD8^+ T cell induction by experimental vaccines in mice, non-human primates and humans [reviewed in [30]]. To increase the power of T cell analysis and study the role of subdominant determinants, H-2^d class I-restricted epitopes contained in the HIVA immunogen were mapped in detail. Thus, the most immunodominant epitope of ...

[3] = tested on: syngeneic peptide-pulsed cells; test: In vivo lysis assay, epitope hierarchy with boost vector and time; design: species or system BALB/c mice; conditions: for epitope hierarchy at 100 d: Figure 5, DNA-DNA (pTH.HIVA) regimen, 100 d after last vaccination
CD8^+ T cells = test: Immunodominance hierarchy of T cell responses to HIVA-derived epitopes; assay type: cell-based, BALB/c mice; conditions: 10 d after immunization
[4] = tested on: H-2D^d, H-2K^d or H-2L^d complexes; test: T2 peptide binding assay, respective MHC class I complexes; conditions: Figure 3A; TAP-deficient T2 cells, 100 µM to 0.1 µM peptide, 14 h at 37°C, FACS
Protocol: as §1, with “Figure 3 Contributing mechanisms of immunodominance. […] T2” for “T2”
(§3) TAP2 ([…])-deficient T2 cell lines stably expressing D^d, K^d, and L^d molecules kindly provided by Dr. Ted Hansen (Washington university, U.S.A.) were used to assess the ability of MHCs to bind each peptide. In brief, 1×10^5 cells were incubated with 0/0.1/1.0/10/100 µM peptides in no-serum RPMI (R-0) for 14 h at 37°C, 5% CO2 in a flat-bottomed 96-well plate. 14 h later, cells were transferred to a round-bottomed 96-well plate and washed with PBS before staining the cells with anti-H-2K^d/H-2D^d-PE or anti-H-2L^d-PE (eBioscience) monoclonal antibodies. Cells were then analyzed on a FACS flow cytometer.

[5] = tested on: splenocytes of DNA-immunized mice; test: IFN-γ ELISPOT and ICS with modified HIVA immunogens; assay type: cell-based, BALB/c mice; conditions: for recognition of altered peptides by splenocytes (IFN-γ): Figure 2A and B, mice immunized with dHmP and dHmPG1, respectively
Source text: To further investigate this phenomenon, we serially inactivated CD8^+ T cell epitopes in the order of their immunodominance. To maintain the HIVA protein integrity, epitopes P and G1 were mutated rather than deleted by substituting the anchor amino acid residues required for a strong binding to the H-2K^d molecule (Figure 2A). The resulting double and triple mutants of the HIVA immunogen were called dHmP and dHmPG1, respectively. […] Groups of BALB/c mice were immunized 2x using the modified HIVA immunogens vectored by plasmid DNA and the immune responses were measured in IFN-γ ELISPOT, ICS and in vivo killing assays. […] Second, consistently in all three assays, immune responses directed against subdominant epitopes were serially recovered, however, not to the same extent. […] Because the response to the G2 epitope remained undetectable even in the dHmPG1-immunized mice, overlapping 15/11 peptides across the whole HIVA immunogen were used again to search for another yet unidentified epitope of a higher rank. […] (Figure 2D). […] Thus, step-wise deletion of immunodominant CD8^+ T cell epitopes restores responses to the subdominant epitopes in the hierarchy.
Figure 2 Serial up-ranking of epitopes. A) Groups of 4 BALB/c mice were immunized 2x i.m. with 100 µg of DNA at a 2-wk interval. Two wk later, splenocytes were assessed in an ELISPOT assay for production of IFN-γ upon re-stimulation with peptides indicated above. Shown are schematic diagrams of HIVA and the three modified immunogens with representative examples of the ELISPOT well images. B) Mice were immunized as in A and 4 wk later, splenocytes were assessed in an ICS assay to measure CD8^+ T cells secreting IFN-γ upon re-stimulation with peptide indicated in the top left corner. Group means±SD are shown. C) Identical groups of mice were assessed for cytolytic activity in an in vivo lysis of syngeneic peptide-pulsed cells transferred into naïve or vaccinated animals. Representative examples of dot plots are shown (top) and the peptide-specific lyses are expressed as a group mean±SD (bottom). D) Groups of 3 BALB/c mice were immunized 3x with 100 µg of DNA indicated above the dot plot in 2-wk intervals and the designated NPP peptide-specific responses were assessed by IFN-γ ICS 2 wk later. The FACS plots are representative examples with IFN-γ producing cells as a percentage of CD8^+ splenocytes shown in the top right panels. All experiments were repeated at least once. TEXT PRINTED IN THE PICTURE: (D) HIVA: 0.05 | (D) HIVAdH: 0.09 | (D) dHmP: 0.08 | (D) dHmPG1: 0.57 DOUBTS OF THE COPYIST ABOUT THIS PICTURE: Panel D: the numbers in the top right quadrants of the CD8 / IFN-γ dot plots are printed without a measure or unit, so they are copied as bare numbers.
The ELISPOT assay was performed using the Mouse IFN-γ ELISpot kit (Mabtech) according to the manufacturer's instructions. Spots were visualised using sequential applications of a biotin-conjugated secondary anti-IFN-γ mAb (R4-6A2, Rat IgG1), an alkaline phosphatase and a chromogenic substrate (Bio-Rad) and counted using the AID ELISpot Reader System (Autoimmun Diagnostika).

H-2K^d [6] = target: T1, H-2K^d (Mus musculus, UniProt P01902); test: T2 peptide binding assay, H-2K^d; conditions: Figure S2A, 100 µM to 0.01 µM peptide
Protocol: as §3
(§4) Supplementary file ppat.1002041.s002.pdf: Figure S2 T2 assays for peptide binding affinity for MHC class I. TAPdeficient T2 cell lines stably transformed with H-2Dd, H-2Kd or H-2Ld complexes were kindly provided by Dr Hansen, Washington University. Peptide-loaded MHC complexes were detected by fluorochrome-conjugated mAb (DB Biosciences) and the cells were analyzed using flow cytometer. […]
(§5) Supplementary Figure S2. […] Peptide-loaded MHC complexes were detected by fluorochrome-conjugated mAb (DB Biosciences) and the cells were analyzed using flow cytometer. […]

H-2K^d [7] = target: T1, H-2K^d; conditions: ref [34]; cited from earlier work
Source text: as §2

[8] = tested on: CD8^+ splenocytes of immunized mice; assay type: cell-based, BALB/c mice; conditions: HIVAdH vs HIVA immunization; ex vivo ICS, Figure 1D
[9] = tested on: syngeneic peptide-pulsed cells; test: in vivo killing assay (lysis of syngeneic peptide-pulsed cells); design: species or system BALB/c mice; conditions: HIVAdH vaccinated relative to HIVA vaccination; Figure 1F
H-2L^d = H-2L^d (Mus musculus, UniProt P01897); test: T2 peptide binding assay, H-2L^d; conditions: Figure S2B, 100 µM to 0.01 µM peptide
Protocol: as §3, §4, §5

H-2D^d = H-2D^d (Mus musculus, UniProt P01900); test: T2 peptide binding assay, H-2D^d; conditions: Figure S2B, 100 µM to 0.01 µM peptide
Protocol: as §3, §4, §5

T1 sequence (P01902 whole entry, looked up): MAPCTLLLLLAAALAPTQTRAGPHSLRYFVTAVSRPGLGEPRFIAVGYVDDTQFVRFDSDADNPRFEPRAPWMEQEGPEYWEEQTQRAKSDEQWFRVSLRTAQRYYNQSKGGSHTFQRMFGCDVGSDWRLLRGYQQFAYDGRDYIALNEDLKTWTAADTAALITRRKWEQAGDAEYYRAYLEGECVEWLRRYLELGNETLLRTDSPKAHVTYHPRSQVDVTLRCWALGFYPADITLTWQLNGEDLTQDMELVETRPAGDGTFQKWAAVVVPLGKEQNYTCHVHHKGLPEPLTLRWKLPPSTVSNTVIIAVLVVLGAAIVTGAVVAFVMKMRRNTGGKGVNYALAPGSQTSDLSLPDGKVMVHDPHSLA
H-2L^d, sequence (P01897 whole entry, looked up): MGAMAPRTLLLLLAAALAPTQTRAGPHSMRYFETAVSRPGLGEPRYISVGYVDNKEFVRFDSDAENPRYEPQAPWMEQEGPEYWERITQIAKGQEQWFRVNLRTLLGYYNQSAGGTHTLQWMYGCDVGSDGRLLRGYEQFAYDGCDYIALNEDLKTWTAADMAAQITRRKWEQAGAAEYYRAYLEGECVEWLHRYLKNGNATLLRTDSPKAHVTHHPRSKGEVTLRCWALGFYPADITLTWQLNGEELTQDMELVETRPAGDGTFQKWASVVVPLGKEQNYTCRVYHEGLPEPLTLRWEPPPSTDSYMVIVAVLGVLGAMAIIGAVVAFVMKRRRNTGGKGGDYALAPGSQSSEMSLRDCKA
H-2D^d, sequence (P01900 whole entry, looked up): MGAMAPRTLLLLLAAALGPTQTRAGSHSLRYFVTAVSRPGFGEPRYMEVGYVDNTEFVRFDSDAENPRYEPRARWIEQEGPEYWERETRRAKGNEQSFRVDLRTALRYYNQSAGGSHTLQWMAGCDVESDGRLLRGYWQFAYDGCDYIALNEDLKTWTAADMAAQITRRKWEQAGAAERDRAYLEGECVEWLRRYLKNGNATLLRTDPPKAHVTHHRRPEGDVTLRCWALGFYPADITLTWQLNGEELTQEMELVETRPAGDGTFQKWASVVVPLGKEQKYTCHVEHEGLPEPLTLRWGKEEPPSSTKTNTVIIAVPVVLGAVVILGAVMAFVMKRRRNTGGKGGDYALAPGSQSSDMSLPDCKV

RGPGRAFVTI [H]
IFN-γ response in non-degranulating IFN-γ^+CD107a/b^−CD8^+ cells ([1]; Figure 3B bottom, following HIVA vaccination, low, but significant): 0.65 % of total CD8^+ cells
peak IFN-γ^+CD107a/b^+CD8^+ cell frequencies at 10 µM peptide [1]: 3.2 % of total CD8^+ splenocytes
MHC class I restriction (H-2D^d and H-2L^d) [2]: restricted by H-2D^d and H-2L^d molecules
epitope hierarchy at 100 d [3]: no longer dominated the anti-HIVA response
epitope hierarchy at 28 d ([3]; double or triple DNA prime-boost regimen, 28 d post vaccination): the strongest at 28 d post vaccination
hierarchy of T cell responses against HIVA-derived epitopes (CD8^+ T cells): H>P>>G1>NPP>>G2
peptide binding affinities for respective MHC class I [4]: directly correlated with the immunodominance hierarchy

NPPIPVGDIYKRWIILGLNK
T cell response to peptide in epitope search ([5]; dHmPG1-immunized mice, overlapping 15/11 peptides across HIVA): a response was detected

IFGSSMTKA [altered P peptide]
recognition of altered peptides by splenocytes (IFN-γ) [5]: unable to recognize
binding to H-2K^d (H-2K^d [6]): unable to bind

TTSTLQEQI [G2, Gag residues 239–247]
MHC class I restriction (H-2K^d) (H-2K^d [7]): H-2K^d-restricted
restoration of G2-specific response ([5]; immunization with dHmPG1 vaccine): failed to restore the G2-specific response
hierarchy of T cell responses against HIVA-derived epitopes (CD8^+ T cells): H>P>>G1>NPP>>G2
peptide binding affinities for respective MHC class I [4]: directly correlated with the immunodominance hierarchy
frequencies of IFN-γ-producing CD8^+ cells [8]: undetectable

IFQSSMTKI [P]
peak IFN-γ^+CD107a/b^+CD8^+ cell frequencies at 10 µM peptide [1]: 3.3 % of total CD8^+ splenocytes
epitope hierarchy at 100 d [3]: replaced by T cells specific for peptide P
hierarchy of T cell responses against HIVA-derived epitopes (CD8^+ T cells): H>P>>G1>NPP>>G2
peptide binding affinities for respective MHC class I [4]: directly correlated with the immunodominance hierarchy
frequencies of IFN-γ-producing CD8^+ cells [8]: noticeably, though not significantly increased
in vivo lysis of peptide-pulsed targets [9]: increased in vivo lysis

NPPIPVGDI
peak IFN-γ^+CD107a/b^+CD8^+ cell frequencies at 10 µM peptide [1]: 0.8 % of total CD8^+ splenocytes
restriction / binding to H-2L^d (H-2L^d): restricted by H-2D^d and H-2L^d
hierarchy of T cell responses against HIVA-derived epitopes (CD8^+ T cells): H>P>>G1>NPP>>G2
restriction / binding to H-2D^d (H-2D^d): restricted by H-2D^d and H-2L^d

AMEFLKDTA [altered G1 peptide]
recognition of altered peptides by splenocytes (IFN-γ) [5]: unable to recognize
binding to H-2K^d (H-2K^d [6]): unable to bind
